Test results taken from patent publication US20070072840A1, “POLYMORPHIC FORMS OF QUETIAPINE” (priority 2005, published 2007).
Counter-ions that a name gives are not always drawn.

Key:
[1] = result in words, conditions not given
[2] = as compared to any other crystalline form
[3] = result in words, conditions not given; remark: listed apart in the source

OCCOCCN1CCN(C2=Nc3ccccc3Sc3ccccc32)CC1 [amorphous quetiapine hydrochloride, Quetiapine Hydrochloride]
stability [1]: stable
solubility in water [2]: more soluble in water
hygroscopicity [3]: non-hygroscopic
